According to patent US20130072474A1, “TREATMENT OF DEMENTIA OF ALZHEIMER'S TYPE WITH MASITINIB” (AB SCIENCE, priority 2010, published 2013):

How the values were obtained:
[1] = test system: patients suffering from mild to moderate dementia of Alzheimer's type; experiment: Phase 2 study, CDR; type: in vivo, human; conditions: for CDR No change, rate of patients / CDR Response (Decrease >0), rate of patients / CDR Worsening (Increase >0), rate of patients / CDR score 0, rate of patients / CDR score 0.5, rate of patients / CDR score 1, rate of patients / CDR score 2, rate of patients / CDR score 3, rate of patients: ITT population, Observed Cases
Source text: (§1) A multicenter, randomized, double-blind, placebo-controlled, parallel-group phase 2 study evaluating the activity of masitinib given orally for 24 weeks has been performed in patients suffering from mild to moderate dementia of Alzheimer's type (protocol period completed, extension ongoing).
(§2) Patients: Patients enrolled in this study had dementia of Alzheimer's type (according to DSM IV criteria), probable Alzheimer's disease according to NINCDS-ADRDA criteria, MMSE≧12 and ≦26, and CDR of 1 or 2. […] Exclusion criteria included inadequate organ function (defined via blood test levels), dementia due to any other causes, uncontrolled depression, psychosis, delusions or delirium.
(§3) Treatment: In addition to a stable dose of acetylcholinesterase inhibitors and/or memantine, patients received masitinib or placebo, supplied as 100 and 200 mg tablets, per os for 24 weeks. Patients received masitinib or placebo initially at a daily total dose of 3 mg/kg or 6 mg/kg, administered twice daily with meals. Dose could be increased or decreased by 1.5 mg/kg/day depending on efficacy and toxicity assessments. Five patients were allocated to each masitinib dose for every three placebo patients. Treatment with any registered or putative cognitive enhancer or disease modifier (other than donepezil, galantamine, rivastigmine or memantine), or any investigational therapies was not allowed.
CDR: The CDR is a five-point categorical rating evaluating severity of dementia. The 5-point score is useful for globally staging the level of impairment: 0=No impairment, 0.5, 1, 2, and 3 indicate very mild, mild, moderate and severe dementia respectively, in the following six areas: memory, orientation, judgment, community affairs, home and hobbies, and personal care (Morris J C, 1997).
(§4) Statistical analyses: Efficacy was analyzed in the intent-to-treat (ITT) (all randomized patients, according to group of randomization) and per protocol (PP) (all patients without a major protocol deviation) populations. […] Efficacy criteria were analyzed using descriptive statistics, numbers and rates for categorical and discontinuous variables, parametric and non-parametric distribution elements for continuous variables.
(§5) Results are presented for the ITT population in the OC dataset (with LOCF for Centre #21 at Week 24).
The overall CDR score, calculated through the use of an algorithm, is useful for characterizing and tracking a patient's level of impairment/dementia: 0=Normal, 0.5=Very Mild Dementia, 1=Mild Dementia, 2=Moderate Dementia, 3=Severe Dementia.

[2] = test system: patients suffering from mild to moderate dementia of Alzheimer's type; experiment: Phase 2 study, ADCS-ADL (daily living activities); type: in vivo, human; conditions: ITT population
Source text: as §1, §2, §3
ADCS-ADL: Alzheimer's Disease Cooperative Study-Activities of Daily Living, which measures a wide spectrum of dementia severity. Patients/caregivers are asked 23 questions about their daily activities. The maximum possible score is 78, with a higher score indicating better function
as §4, §5

ABL = ABL (Homo sapiens, UniProt P00519); conditions: at therapeutic doses of masitinib; cited from earlier work
Chain of ABL (P00519 whole entry): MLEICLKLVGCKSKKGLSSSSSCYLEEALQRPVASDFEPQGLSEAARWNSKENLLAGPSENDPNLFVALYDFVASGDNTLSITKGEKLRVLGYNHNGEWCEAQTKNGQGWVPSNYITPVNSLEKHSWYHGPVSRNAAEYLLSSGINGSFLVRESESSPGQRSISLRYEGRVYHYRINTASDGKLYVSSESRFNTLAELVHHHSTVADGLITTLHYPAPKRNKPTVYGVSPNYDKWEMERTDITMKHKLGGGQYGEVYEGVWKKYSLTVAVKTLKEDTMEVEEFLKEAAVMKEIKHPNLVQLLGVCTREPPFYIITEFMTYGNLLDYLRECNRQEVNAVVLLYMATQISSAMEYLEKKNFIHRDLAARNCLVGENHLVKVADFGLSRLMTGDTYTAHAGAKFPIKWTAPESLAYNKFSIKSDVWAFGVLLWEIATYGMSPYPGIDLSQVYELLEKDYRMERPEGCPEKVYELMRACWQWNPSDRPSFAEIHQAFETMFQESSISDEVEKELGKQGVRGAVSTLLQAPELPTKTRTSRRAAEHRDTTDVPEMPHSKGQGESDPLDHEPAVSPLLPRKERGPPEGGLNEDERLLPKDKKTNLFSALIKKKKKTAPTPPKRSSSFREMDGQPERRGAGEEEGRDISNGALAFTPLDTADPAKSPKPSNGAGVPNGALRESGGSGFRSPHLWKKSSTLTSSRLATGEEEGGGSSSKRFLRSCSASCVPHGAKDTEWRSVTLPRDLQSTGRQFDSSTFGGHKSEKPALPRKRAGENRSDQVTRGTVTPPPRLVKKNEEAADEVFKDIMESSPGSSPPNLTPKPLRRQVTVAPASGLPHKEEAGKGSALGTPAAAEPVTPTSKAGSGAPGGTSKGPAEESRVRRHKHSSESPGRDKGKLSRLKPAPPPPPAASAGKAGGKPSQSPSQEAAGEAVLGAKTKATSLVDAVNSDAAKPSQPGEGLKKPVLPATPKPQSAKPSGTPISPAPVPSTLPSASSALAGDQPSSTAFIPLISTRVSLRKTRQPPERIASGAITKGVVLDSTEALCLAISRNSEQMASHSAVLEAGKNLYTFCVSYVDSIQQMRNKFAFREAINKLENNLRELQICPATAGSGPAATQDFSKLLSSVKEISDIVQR

Fyn tyrosine kinase = Fyn tyrosine kinase (Homo sapiens, UniProt P06241); experiment: Fyn tyrosine kinase inhibition (preclinical data); type: biochemical
Chain of Fyn tyrosine kinase (P06241 whole entry): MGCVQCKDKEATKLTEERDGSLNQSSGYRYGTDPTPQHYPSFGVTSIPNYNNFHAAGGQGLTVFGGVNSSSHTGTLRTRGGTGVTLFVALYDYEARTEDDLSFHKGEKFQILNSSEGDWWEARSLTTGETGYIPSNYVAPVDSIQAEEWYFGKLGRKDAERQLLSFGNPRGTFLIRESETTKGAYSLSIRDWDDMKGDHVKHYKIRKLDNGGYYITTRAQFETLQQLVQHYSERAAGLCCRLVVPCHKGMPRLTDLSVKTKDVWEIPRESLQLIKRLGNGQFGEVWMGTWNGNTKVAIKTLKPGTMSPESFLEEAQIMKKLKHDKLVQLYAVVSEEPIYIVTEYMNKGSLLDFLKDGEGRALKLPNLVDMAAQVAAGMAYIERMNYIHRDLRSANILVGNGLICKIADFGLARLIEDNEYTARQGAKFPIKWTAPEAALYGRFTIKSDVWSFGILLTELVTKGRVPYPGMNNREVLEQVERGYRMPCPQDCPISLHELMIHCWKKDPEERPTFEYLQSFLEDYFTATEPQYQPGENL

[3] = test system: patients suffering from mild to moderate dementia of Alzheimer's type; experiment: Phase 2 study, CIBIC-plus (global clinical assessment); type: in vivo, human; conditions: Observed Cases, ITT population
Source text: as §1, §2, §3
CIBIC-plus: Clinician's Interview Based Impression of Change, requires assessment by a skilled clinician based on his/her observation at an interview with the patient, in combination with information supplied by a caregiver familiar with the behavior of the patient over the interval rated.
as §4, §5

[4] = W 12, Observed Cases, listed as AB1010
[5] = W 24 LOCF center 21, Observed Cases
[6] = W 24 LOCF center 21, observed cases, listed as AB1010

Compound: Cc1ccc(NC(=O)c2ccc(CN3CCN(C)CC3)cc2)cc1Nc1nc(-c2cccnc2)cs1 [masitinib, 4-(4-methylpiperazin-1-ylmethyl)-N-[4-methyl-3-(4-pyridin-3ylthiazol-2-ylamino)phenyl]benzamide]
- CDR No change, rate of patients ([1]; W 4): 9 (90.0%)
- CDR Response (Decrease >0), rate of patients ([1]; W 4): 0 (0.0%)
- CDR Worsening (Increase >0), rate of patients ([1]; W 4): 1 (10.0%)
- CDR score 0, rate of patients ([1]; W 4): 0 (0.0%)
- CDR score 0.5, rate of patients ([1]; W 4): 0 (0.0%)
- CDR score 1, rate of patients ([1]; W 4): 7 (70.0%)
- CDR score 2, rate of patients ([1]; W 4): 3 (30.0%)
- CDR score 3, rate of patients ([1]; W 4): 0 (0.0%)
- CDR No change, rate of patients ([1]; W 8): 7 (87.5%)
- CDR Response (Decrease >0), rate of patients ([1]; W 8): 0 (0.0%)
- CDR Worsening (Increase >0), rate of patients ([1]; W 8): 1 (12.5%)
- CDR score 0, rate of patients ([1]; W 8): 0 (0.0%)
- CDR score 0.5, rate of patients ([1]; W 8): 0 (0.0%)
- CDR score 1, rate of patients ([1]; W 8): 6 (75.0%)
- CDR score 2, rate of patients ([1]; W 8): 2 (25.0%)
- CDR score 3, rate of patients ([1]; W 8): 0 (0.0%)
- CDR No change, rate of patients ([1]; W 12): 14 (82.4%)
- CDR Response (Decrease >0), rate of patients ([1]; W 12): 2 (11.8%)
- CDR Worsening (Increase >0), rate of patients ([1]; W 12): 1 (5.9%)
- CDR score 0, rate of patients ([1]; W 12): 0 (0.0%)
- CDR score 0.5, rate of patients ([1]; W 12): 1 (5.9%)
- CDR score 1, rate of patients ([1]; W 12): 15 (88.2%)
- CDR score 2, rate of patients ([1]; W 12): 1 (5.9%)
- CDR score 3, rate of patients ([1]; W 12): 0 (0.0%)
- CDR No change, rate of patients ([1]; W 24): 6 (66.7%)
- CDR Response (Decrease >0), rate of patients ([1]; W 24): 2 (22.2%)
- CDR Worsening (Increase >0), rate of patients ([1]; W 24): 1 (11.1%)
- CDR score 0, rate of patients ([1]; W 24): 0 (0.0%)
- CDR score 0.5, rate of patients ([1]; W 24): 2 (22.2%)
- CDR score 1, rate of patients ([1]; W 24): 6 (66.7%)
- CDR score 2, rate of patients ([1]; W 24): 1 (11.1%)
- CDR score 3, rate of patients ([1]; W 24): 0 (0.0%)
- CDR No change, rate of patients ([1]; W 24 LOCF center 21): 12 (75.0%)
- CDR Response (Decrease >0), rate of patients ([1]; W 24 LOCF center 21): 3 (18.8%)
- CDR Worsening (Increase >0), rate of patients ([1]; W 24 LOCF center 21): 6.3%
- CDR score 0, rate of patients ([1]; W 24 LOCF center 21): 0 (0.0%)
- CDR score 0.5, rate of patients ([1]; W 24 LOCF center 21): 2 (12.5%)
- CDR score 1, rate of patients ([1]; W 24 LOCF center 21): 13 (81.3%)
- CDR score 2, rate of patients ([1]; W 24 LOCF center 21): 1 (6.3%)
- CDR score 3, rate of patients ([1]; W 24 LOCF center 21): 0 (0.0%)
- CDR Worsening (Increase >0), rate of patients ([1]; W 24 LOCF center 21, listed as AB1010): 1 (6.3%)
- Frequency of patients with CDR Score 0.5-1 ([1]; Week 24): 94%
- ADCS-ADL No change, rate of patients ([2]; W 4, Observed Cases): 5 (22.7%)
- ADCS-ADL Response (Increase >=3), rate of patients ([2]; W 4, Observed Cases): 10 (45.5%)
- ADCS-ADL Worsening (Decrease <0), rate of patients ([2]; W 4, Observed Cases): 7 (31.8%)
- ADCS-ADL absolute change relative to baseline, Mean ± Std ([2]; W 4, Observed Cases): 1.8 ± 6.1
- ADCS-ADL absolute change relative to baseline, Median ([2]; W 4, Observed Cases): 1.5
- ADCS-ADL No change, rate of patients ([2]; W 8, Observed Cases): 5 (27.8%)
- ADCS-ADL Response (Increase >=3), rate of patients ([2]; W 8, Observed Cases): 7 (38.9%)
- ADCS-ADL Worsening (Decrease <0), rate of patients ([2]; W 8, Observed Cases): 6 (33.3%)
- ADCS-ADL absolute change relative to baseline, Mean ± Std ([2]; W 8, Observed Cases): 0.3 ± 7.0
- ADCS-ADL absolute change relative to baseline, Median ([2]; W 8, Observed Cases): 1.0
- ADCS-ADL No change, rate of patients ([2]; W 12, Observed Cases): 3 (18.8%)
- ADCS-ADL Response (Increase >=3), rate of patients ([2]; W 12, Observed Cases): 8 (50.0%)
- ADCS-ADL Worsening (Decrease <0), rate of patients ([2]; W 12, Observed Cases): 31%
- ADCS-ADL absolute change relative to baseline, Mean ± Std ([2]; W 12, Observed Cases): 6.9±10.9
- ADCS-ADL absolute change relative to baseline, Median ([2]; W 12, Observed Cases): 3.0
- ADCS-ADL Worsening (Decrease <0), rate of patients [2, 4]: 5 (31.3%)
- ADCS-ADL absolute change relative to baseline, Mean ± Std [2, 4]: 6.9 ± 10.9
- ADCS-ADL No change, rate of patients ([2]; W 24, Observed Cases): 0 (0.0%)
- ADCS-ADL Response (Increase >=3), rate of patients ([2]; W 24, Observed Cases): 5 (62.5%)
- ADCS-ADL Worsening (Decrease <0), rate of patients ([2]; W 24, Observed Cases): 3 (37.5%)
- ADCS-ADL absolute change relative to baseline, Mean ± Std ([2]; W 24, Observed Cases): −1.4 ± 15.3
- ADCS-ADL absolute change relative to baseline, Median ([2]; W 24, Observed Cases): 4.0
- ADCS-ADL No change, rate of patients [2, 5]: 2 (13.3%)
- ADCS-ADL Response (Increase >=3), rate of patients [2, 5]: 60%
- ADCS-ADL Worsening (Decrease <0), rate of patients [2, 5]: 27%
- ADCS-ADL absolute change relative to baseline, Mean ± Std [2, 5]: 5.5±15.8
- ADCS-ADL absolute change relative to baseline, Median [2, 5]: 4.0
- ADCS-ADL Response (Increase >=3), rate of patients [2, 6]: 9 (60.0%)
- ADCS-ADL Worsening (Decrease <0), rate of patients [2, 6]: 4 (26.7%)
- ADCS-ADL absolute change relative to baseline, Mean ± Std [2, 6]: 5.5 ± 15.8
- inhibition of ABL (ABL): not inhibited at therapeutic doses
- IC50 (Fyn tyrosine kinase): 165 nM
- CIBIC-plus No change (CIBIC = 4), rate of patients ([3]; W 4): 16 (66.7%)
- CIBIC-plus Response (CIBIC in [1-3]), rate of patients ([3]; W 4): 4 (16.7%)
- CIBIC-plus Worsening (CIBIC in [5-7]), rate of patients ([3]; W 4): 4 (16.7%)
- CIBIC-plus No change (CIBIC = 4), rate of patients ([3]; W 8): 16 (84.2%)
- CIBIC-plus Response (CIBIC in [1-3]), rate of patients ([3]; W 8): 2 (10.5%)
- CIBIC-plus Worsening (CIBIC in [5-7]), rate of patients ([3]; W 8): 1 (5.3%)
- CIBIC-plus No change (CIBIC = 4), rate of patients ([3]; W 12): 14 (82.4%)
- CIBIC-plus Response (CIBIC in [1-3]), rate of patients ([3]; W 12): 1 (5.9%)
- CIBIC-plus Worsening (CIBIC in [5-7]), rate of patients ([3]; W 12): 12%
- CIBIC-plus Worsening (CIBIC in [5-7]), rate of patients ([3]; W 12, listed as AB1010): 2 (11.8%)
- CIBIC-plus No change (CIBIC = 4), rate of patients ([3]; W 24): 5 (55.6%)
- CIBIC-plus Response (CIBIC in [1-3]), rate of patients ([3]; W 24): 2 (22.2%)
- CIBIC-plus Worsening (CIBIC in [5-7]), rate of patients ([3]; W 24): 2 (22.2%)
- CIBIC-plus No change (CIBIC = 4), rate of patients ([3]; W 24 LOCF center 21): 12 (75.0%)
- CIBIC-plus Response (CIBIC in [1-3]), rate of patients ([3]; W 24 LOCF center 21): 2 (12.5%)
- CIBIC-plus Worsening (CIBIC in [5-7]), rate of patients ([3]; W 24 LOCF center 21): 2 (12.5%)
